From patent US9248131B2, “Aquaporin modulators and methods of using them for the treatment of edema and fluid imbalance” (THE ARIZONA BOARD OF REGENTS ON BEHALF OF THE UNIVERSITY OF …, priority 2006, dated 2016)
Blank lines part the entries; values can stand above or below the molecule they belong to.

Key:
AQP4 = molecular target: T1, AQP4 (Homo sapiens, UniProt P55087); experiment: Oocyte swelling assay: water permeability (Pf) of AQP4-expressing oocytes by videomicroscopy, block or % stimulation; type: cell-based; details: for AQP-4 effect: comparison with bumetanide (in words): relative to bumetanide
T1 construct: expressed in transfected cells; host or cells: Xenopus oocytes
T1 sequence (P55087 whole entry, species assumed): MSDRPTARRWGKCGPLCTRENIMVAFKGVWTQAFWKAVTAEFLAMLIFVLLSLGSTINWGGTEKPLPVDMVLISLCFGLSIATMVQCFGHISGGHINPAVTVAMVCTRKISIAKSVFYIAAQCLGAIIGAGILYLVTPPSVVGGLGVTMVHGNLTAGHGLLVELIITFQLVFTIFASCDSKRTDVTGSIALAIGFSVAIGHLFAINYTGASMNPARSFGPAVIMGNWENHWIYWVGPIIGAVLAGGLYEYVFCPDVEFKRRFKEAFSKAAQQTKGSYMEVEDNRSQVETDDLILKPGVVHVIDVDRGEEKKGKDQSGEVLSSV
From the text: (§1) A method for screening compounds for their ability to modulate aquaporin activity based on a water permeability assay in Xenopus oocytes expressing aquaporins which is used to identify, assess, and characterize compounds that either block or stimulate the aquaporin channels including AQP1, AQP4 and AQP9 channels.
(§2) Selection rationale and methodology. The ability of compounds, analogs and/or agents to block an aquaporin channel was quantified by videomicroscopic analyses of cross-sectional area of AQP-expressing oocytes as a function of time in a defined osmotic gradient, allowing the calculation of the water permeability factor (Pf), statistical evaluation of significant differences in the rate of water entry, and definition of dose response curves with IC50 values (concentration required for half-maximal block).
(§3) This compound evaluation method has been utilized with AQP1,-4,-5, and -9 channels. Observations of channel stimulation were made using the same assay method, however, the results were reported as % stimulation over control at a given concentration. […] TEA is known as a blocker of K^+ channel subtypes and nicotinic acetylcholine receptors. TEA sensitivity of AQP1 was removed by site-directed mutagenesis of tyrosine 186 to phenylalanine (Y186F) in the outer vestibule of the water pore, and confirmed that the inhibitory action of TEA is not due to nonspecific effects on endogenous channels (Brooks et al., 2000).

AQP1 [1] = molecular target: T2, AQP1 (Homo sapiens, UniProt P29972); experiment: Oocyte swelling assay: water permeability (Pf) of AQP1-expressing oocytes, block or % stimulation; type: cell-based; parameters: expressed in transfected cells; host or cells: Xenopus oocytes; details: for AQP-1 effect (in words): given extracellularly
T2 sequence (P29972 1-269): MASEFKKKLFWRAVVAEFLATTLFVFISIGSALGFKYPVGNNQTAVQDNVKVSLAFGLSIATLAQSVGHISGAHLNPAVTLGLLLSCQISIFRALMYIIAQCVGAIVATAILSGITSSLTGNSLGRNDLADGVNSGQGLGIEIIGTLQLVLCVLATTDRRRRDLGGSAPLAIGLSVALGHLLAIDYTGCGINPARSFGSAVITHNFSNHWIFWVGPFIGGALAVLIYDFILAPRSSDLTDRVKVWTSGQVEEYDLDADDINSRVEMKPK
From the text: as §1, §2, §3

AQP4-expressing oocytes = molecular target: T3, AQP4-expressing oocytes (Homo sapiens, UniProt P55087); experiment: Simple screen: time to oocyte bursting in hypotonic saline; type: cell-based; details: AQP4-expressing oocytes; concentration not given
T3 construct: expressed in transfected cells; host or cells: Xenopus oocytes
T3 sequence (P55087 whole entry, species assumed): as the sequence (P55087 whole entry, species assumed) above
Experimental: The composition of the library for initial AQP channel screening included various channel, transporter and receptor blocking compounds based on intuition and from clues regarding clinical side effects that involved water transporting tissues. In a simple screen (FIG. 1), control and AQP4-expressing oocytes were preincubated in isotonic saline (100 mM NaCl; 5 mM MgCl2; 5 mM HEPES, pH 7.3; ˜200 mOsm) containing the test compound for 10-15 min before each experiment; then the time to oocyte bursting (physical explosion) after transfer to 100 mOsm saline was monitored visually. […] Block was evident in the increased time required for bursting in hypotonic saline.

AQP1 [2] = molecular target: T2, AQP1; details: AQP1 expressed in oocytes (Brooks et al., 2000); cited from earlier work
[3] = ↓ block, ↑ activation, ═ no effect, symbols not defined in the table
[4] = ↓ block, ↑ stimulation, ═ no effect, symbols not defined in the table

Compound: CCCCNc1c(Oc2ccccc2)cc(S(N)(=O)=O)cc1C(=O)OC
AQP-4 effect: % block (AQP4; at 1 μM extracellularly): −30%
AQP-4 effect: comparison with bumetanide (in words) (AQP4): Improved potency over bumetanide

Compound: CCCCNc1c(Oc2ccccc2)cc(S(=O)(=O)NC)cc1C(=O)OC
AQP-4 effect: % block (AQP4; at 10 μM extracellularly): −40%
AQP-4 effect: comparison with bumetanide (in words) (AQP4): Improved potency over bumetanide

Compound: CCCCNc1c(Oc2ccccc2)cc(S(=O)(=O)NC)cc1C(=O)O
AQP-4 effect: % block (AQP4; at 100 μM): −40%
AQP-4 effect: comparison with bumetanide (in words) (AQP4): Improved block

Compound: CCCCNc1cc(C(=O)N2CCN(C)CC2)cc(S(N)(=O)=O)c1Oc1ccccc1
AQP-4 effect (in words) (AQP4; at 10 μM): No Significant effect at 10 μM

Compound: CCCCNc1cc(C(=O)NCCN2CCOCC2)cc(S(N)(=O)=O)c1Oc1ccccc1
AQP-4 effect (in words) (AQP4; at 10 μM): Some agonist trend at 10 μM

Compound: CCCCNc1cc(C(=O)NCc2cccnc2)cc(S(N)(=O)=O)c1Oc1ccccc1
AQP-4 effect: % block (AQP4; at 10 μM): 50% block at 10 μM

Compound: CCCCNc1cc(C(=O)Nc2ccccn2)cc(S(N)(=O)=O)c1Oc1ccccc1
AQP-4 effect (in words) (AQP4; at 10 μM): No Significant effect at 10 μM

Compound: CCCCNc1cc(C(=O)NCc2ccccn2)cc(S(N)(=O)=O)c1Oc1ccccc1
AQP-4 effect (in words) (AQP4; at 10 μM): No Significant effect at 10 μM

Compound: CCCCNc1cc(C(=O)NCc2ccncc2)cc(S(N)(=O)=O)c1Oc1ccccc1
AQP-4 effect (in words) (AQP4; at 10 μM): No Significant effect at 10 μM

Compound: CCCCNc1cc(C(=O)NCCN2CCN(CCN)CC2)cc(S(N)(=O)=O)c1Oc1ccccc1
AQP-4 effect (in words) (AQP4; at 10 μM): No Significant effect at 10 μM

Compound: CCCCNc1cc(C(=O)NCCCN2CCN(C)CC2)cc(S(N)(=O)=O)c1Oc1ccccc1
AQP-4 effect (in words) (AQP4; at 10 μM): No Significant effect at 10 μM

Compound: CNS(=O)(=O)c1cc(C(=O)O)c(NCc2ccco2)cc1Cl
AQP-4 effect (arrow symbol) (AQP4; arrow symbols, key not given): (↑)?
AQP-1 effect (arrow symbol) (AQP1 [1]; arrow symbols, key not given): ↑

Compound: COC(=O)c1cc(S(=O)(=O)NCc2ccccc2)c(Cl)cc1NCc1ccco1
AQP-4 effect (arrow symbol) (AQP4; arrow symbols, key not given): ↑
AQP-4 effect (in words) (AQP4; at 100 μM): Significant Agonist Effect
AQP-1 effect (arrow symbol) (AQP1 [1]; arrow symbols, key not given): ═

Compound: O=C(O)c1cc(S(=O)(=O)NCc2ccccc2)c(Cl)cc1NCc1ccco1
AQP-4 effect (arrow symbol) (AQP4; arrow symbols, key not given): ═
AQP-1 effect (arrow symbol) (AQP1 [1]; arrow symbols, key not given): ↓

Compound: C=CCNS(=O)(=O)c1cc(C(=O)O)c(NCc2ccco2)cc1Cl
AQP-4 effect (arrow symbol) (AQP4; arrow symbols, key not given): ↑↑
AQP-4 effect (in words) (AQP4; at 100 μM): Significant Agonist Effect
AQP-1 effect (arrow symbol) (AQP1 [1]; arrow symbols, key not given): ═

Compound: NS(=O)(=O)c1cc2c(=O)ncn(Cc3ccco3)c2cc1Cl
AQP-4 effect (in words) (AQP4; at 100 μM): p > 0.05 No significant Antagonist Effect at 100 μM

Compound: NS(=O)(=O)c1cc(C(=O)O)c(Cl)cc1NCc1ccccc1
AQP-4 effect (in words) (AQP4; at 100 μM): p > 0.05 No significant Antagonist Effect at 100 μM

Compound: NS(=O)(=O)c1cc(C(=O)O)c(Cl)cc1NCc1ccco1
AQP-4 effect (in words) (AQP4; at 100 μM): Significant Agonist Effect at 100 μM

Compound: CCCCNc1cc(C(=O)OC)cc(S(N)(=O)=O)c1Oc1ccccc1 [AQP-0001, bumetanide methyl ester]
AQP-4 effect: % block (AQP4; 1 μM extracellularly): −30%
AQP-4 effect: potency compared with bumetanide (in words) (AQP4; extracellularly): Improved potency over bumetanide
AQP-4 effect (arrow symbol) (AQP4; [3]): ↓↓

Compound: CCCCNc1cc(C(=O)N2CCOCC2)cc(S(N)(=O)=O)c1Oc1ccccc1 [AQP-0006]
AQP-4 effect: % activation (AQP4; 10 μM given extracellularly): 70%
AQP-4 effect (arrow symbol) (AQP4; [3]): ↑

Compound: CCCCNc1cc(C(=O)Nc2ccncc2)cc(S(N)(=O)=O)c1Oc1ccccc1 [AQP-0013]
AQP-4 effect: % block (AQP4; 10 μM extracellularly): 80%
AQP-4 effect (arrow symbol) (AQP4; [3]): ↓↓

Compound: COC(=O)c1cc(S(N)(=O)=O)c(Cl)cc1NCc1ccco1 [AQP-0022, Furosemide methyl ester]
AQP-4 effect (in words) (AQP4; 100 μM extracellularly): No significant effect
AQP-4 effect (arrow symbol) (AQP4; [3]): ═
AQP-1 effect (arrow symbol) (AQP1 [1]; [4]): ↓↓

Compound: CNS(=O)(=O)c1cc(C(=O)OC)c(NCc2ccco2)cc1Cl [AQP-0023, Furosemide methyl ester monomethyl sulfonamide]
AQP-4 effect: % agonist effect / agonist trend (AQP4; 100 μM given extracellularly): −20%
AQP-4 effect (arrow symbol) (AQP4; [3]): ↑
AQP-1 effect (arrow symbol) (AQP1 [1]; [4]): ↓↓

Compound: C=CCNS(=O)(=O)c1cc(C(=O)OC)c(NCc2ccco2)cc1Cl [AQP-0027]
AQP-4 effect: % block / antagonist trend (AQP4; 100 μM, route not stated): −25%
AQP-4 effect (arrow symbol) (AQP4; [3]): (↓)?
AQP-1 effect (in words) (AQP1 [1]): No significant effect
AQP-1 effect (arrow symbol) (AQP1 [1]; [4]): ═

Compound: NS(=O)(=O)c1cc(C(=O)O)c(NCc2ccco2)cc1NCc1ccco1 [AQP-0033]
AQP-4 effect: % agonist effect (AQP4; 100 μM, route not stated): −25%
AQP-4 effect (arrow symbol) (AQP4; [3]): ↑
AQP-1 effect (in words) (AQP1 [1]): No significant effect
AQP-1 effect (arrow symbol) (AQP1 [1]; [4]): ═

Compound: [Cl][Hg][Cl] [HgCl2]
time to oocyte bursting (AQP4-expressing oocytes): no effect

Compound: CCCCNc1c(Oc2ccccc2)cc(S(N)(=O)=O)cc1C(=O)O [drawing 94]
AQP-4 effect: % block (AQP4; at 100 μM): −35% block at 100 μM

Compound: CCCCNc1cc(C(=O)N2CCOCC2)cc(S(N)(=O)=O)c1Oc1ccccc1 [drawing 100]
AQP-4 effect: % activation (AQP4; at 10 μM): 70% Activation at 10 μM

Compound: CCCCNc1cc(C(=O)NCCN2CCN(C)CC2)cc(S(N)(=O)=O)c1Oc1ccccc1 [drawing 101]
AQP-4 effect: % activation (AQP4; at 10 μM): 110% activation at 10

Compound: CCCCNc1cc(C(=O)NCCN2CCS(=O)(=O)CC2)cc(S(N)(=O)=O)c1Oc1ccccc1 [drawing 103]
AQP-4 effect: % activation (AQP4; at 10 μM): 60% activation at 10 μM

Compound: CCCCNc1cc(C(=O)Nc2ccncc2)cc(S(N)(=O)=O)c1Oc1ccccc1 [drawing 107]
AQP-4 effect: % block (AQP4; at 10 μM): 80%
toxicity observed in AQP-4 test (AQP4; at 10 μM): some toxicity observed

Compound: COC(=O)c1cc(S(N)(=O)=O)c(Cl)cc1NCc1ccco1 [drawing 114]
AQP-4 effect (arrow symbol) (AQP4; arrow symbols, key not given): ═
AQP-1 effect (arrow symbol) (AQP1 [1]; arrow symbols, key not given): ↓↓

Compound: CNS(=O)(=O)c1cc(C(=O)OC)c(NCc2ccco2)cc1Cl [drawing 115]
AQP-4 effect (arrow symbol) (AQP4; arrow symbols, key not given): ↑
AQP-4 effect (in words) (AQP4; at 100 μM): Significant Agonist Effect
AQP-1 effect (arrow symbol) (AQP1 [1]; arrow symbols, key not given): ↓↓

Compound: NS(=O)(=O)c1cc(C(=O)O)c(NCc2ccco2)cc1Cl [drawing 117]
AQP-4 effect (arrow symbol) (AQP4; arrow symbols, key not given): ? ↑
AQP-1 effect (arrow symbol) (AQP1 [1]; arrow symbols, key not given): ═

Compound: C=CCNS(=O)(=O)c1cc(C(=O)OC)c(NCc2ccco2)cc1Cl [drawing 119]
AQP-4 effect (arrow symbol) (AQP4; arrow symbols, key not given): (↑)?
AQP-4 effect (in words) (AQP4; at 100 μM): No significant Antagonist Effect
AQP-1 effect (arrow symbol) (AQP1 [1]; arrow symbols, key not given): ═

Compound: NS(=O)(=O)c1cc(C(=O)O)c(NCc2ccco2)cc1Cl [furosemide, Furosemide, reference compound]
AQP-4 effect: % block (AQP4; 15 μM given intracellularly): 75%
AQP-4 effect (in words) (AQP4; 100 μM extracellularly): Modest effect
block of swelling rate in AQP4-expressing oocytes (AQP4; extracellular application): less effective then bumetanide
block of swelling in AQP4-expressing oocytes (AQP4; internal injection into the oocyte (intracellular)): improved block at lower concentrations
AQP-4 effect (arrow symbol) (AQP4; [3]): ↓↓
AQP-1 effect (arrow symbol) (AQP1 [1]; [4]): ═

Compound: CC[N+](CC)(CC)CC [tetraethylammonium (TEA), tetraethylammonium]
water flux through AQP1 channels (AQP1 [2]): blocks water flux

Second part, the molecule after the results:

AQP-4 effect: % activation (AQP4; 10 μM given extracellularly): 110%
AQP-4 effect (arrow symbol) (AQP4; [3]): ↑↑
Compound: CCCCNc1cc(C(=O)NCCN2CCN(C)CC2)cc(S(N)(=O)=O)c1Oc1ccccc1 [AQP-0007]

AQP-4 effect: % activation (AQP4; 10 μM given extracellularly): 60%
AQP-4 effect (arrow symbol) (AQP4; [3]): ↑
Compound: CCCCNc1cc(C(=O)NCCN2CCS(=O)(=O)CC2)cc(S(N)(=O)=O)c1Oc1ccccc1 [AQP-0009]

AQP-4 effect: % block / antagonist trend (AQP4; 100 μM, route not stated): −35%
AQP-4 effect (arrow symbol) (AQP4; [3]): ↓
Compound: CCCCNc1c(Oc2ccccc2)cc(S(N)(=O)=O)cc1C(=O)O [Bumetanide AQP-0000]
